Measurements published in paper PMC9607545, “Cry4Aa and Cry4Ba Mosquito-Active Toxins Utilize Different Domains in Binding to a Particular Culex ALP Isoform: A Functional Toxin Receptor Implicating Differential Actions on Target Larvae” (Toxins, 2022).

Assays:
Cq-mALP1263 = molecular target: T1, Cq-mALP1263 (Culex quinquefasciatus, UniProt A0A9E8ACD0); assay: hydrolysis in Sf9 cell lysate, absorbance of p-nitrophenol at […] nm; type: biochemical; settings: 5 mM pNPP, 100 mM Tris-HCl pH 9.5, 5 mM MgCl2, 100 mM NaCl, 30 °C, 10 min; control: CAT-expressing lysate (endogenous ALP activity present)
T1 construct: full-length ORF, 523 residues, ~57 kDa, 1569 bp cDNA from 4th instar larval midgut; N-terminal signal peptide and predicted GPI anchor; baculovirus (AcMNPV) expression in Sf9 cells
T1 sequence (A0A9E8ACD0 19-523): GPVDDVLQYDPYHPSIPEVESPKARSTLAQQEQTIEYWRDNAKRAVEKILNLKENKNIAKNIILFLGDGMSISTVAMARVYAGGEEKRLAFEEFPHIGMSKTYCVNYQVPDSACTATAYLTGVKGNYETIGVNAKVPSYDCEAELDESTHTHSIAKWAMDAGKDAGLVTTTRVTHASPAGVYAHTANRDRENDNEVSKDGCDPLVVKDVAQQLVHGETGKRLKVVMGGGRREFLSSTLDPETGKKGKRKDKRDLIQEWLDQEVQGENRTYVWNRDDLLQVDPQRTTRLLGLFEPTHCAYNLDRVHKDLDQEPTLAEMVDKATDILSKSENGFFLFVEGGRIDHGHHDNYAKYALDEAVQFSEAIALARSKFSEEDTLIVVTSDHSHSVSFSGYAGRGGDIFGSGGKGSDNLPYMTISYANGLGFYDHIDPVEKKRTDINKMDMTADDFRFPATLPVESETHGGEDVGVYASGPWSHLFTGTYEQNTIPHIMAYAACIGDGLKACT

Cq-mALP1264 = molecular target: T2, Cq-mALP1264 (Culex quinquefasciatus, UniProt A0A9E8AEX0); assay: as above; type: biochemical; settings: 5 mM pNPP, 100 mM Tris-HCl pH 9.5, 5 mM MgCl2, 100 mM NaCl, 30 °C, 10 min; control: CAT-expressing lysate (endogenous ALP activity present)
T2 construct: full-length ORF, 552 residues, ~61 kDa, 1656 bp cDNA from 4th instar larval midgut; N-terminal signal peptide and predicted GPI anchor; baculovirus (AcMNPV) expression in Sf9 cells
T2 sequence (A0A9E8AEX0 21-552): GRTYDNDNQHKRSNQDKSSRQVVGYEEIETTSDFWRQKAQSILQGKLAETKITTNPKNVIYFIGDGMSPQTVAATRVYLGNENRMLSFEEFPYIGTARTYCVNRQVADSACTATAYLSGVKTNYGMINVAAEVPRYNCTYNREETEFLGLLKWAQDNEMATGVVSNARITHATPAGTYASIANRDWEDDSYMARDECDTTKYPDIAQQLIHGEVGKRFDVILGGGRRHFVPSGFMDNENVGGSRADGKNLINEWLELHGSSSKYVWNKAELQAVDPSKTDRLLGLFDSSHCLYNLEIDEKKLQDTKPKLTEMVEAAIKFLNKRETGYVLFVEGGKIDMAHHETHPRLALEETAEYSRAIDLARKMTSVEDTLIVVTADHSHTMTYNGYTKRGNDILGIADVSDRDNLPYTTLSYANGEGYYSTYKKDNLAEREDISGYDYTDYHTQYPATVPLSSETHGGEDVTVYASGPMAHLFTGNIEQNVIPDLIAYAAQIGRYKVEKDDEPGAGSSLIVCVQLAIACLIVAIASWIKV

## O=[N+]([O-])c1ccc(OP(=O)(O)O)cc1 [pNPP]
Cq-mALP1263
  hydrolysis in Sf9 cell lysate, absorbance of p-nitrophenol at 405 nm: both Cq-mALP-expressed cells produced significantly higher ALP activity than CAT-expressed cells
Cq-mALP1264
  hydrolysis in Sf9 cell lysate, absorbance of p-nitrophenol at 405 nm: both Cq-mALP-expressed cells produced significantly higher ALP activity than CAT-expressed cells
